Assay: CP 55,940 levels in eight brain regions 2 h after single i.p. 3 mg/kg injection (HPLC/MS/MS)
Format: in vivo, mouse
Conditions: for CP 55,940 level: 3mg/kg CP 55,940, mean
Description: The Bloomington Institutional Animal Care and Use Committee of Indiana University reviewed and approved the animal procedures. Female mice from the CD1 strain were utilized to match our study examining THC’s effects on the brain lipidome ([Leishman et al., 2018]). Mice were given a single i.p. injection of either 3 mg/kg CP or 1:1:18 cremophor:ethanol:saline vehicle (please refer to the section “3 mg/kg CP Is Relevant for Synthetic Cannabinoid Abuse and Has Stronger Effects on the Female Mouse Brain Lipidome During Adolescence” for a justification of dose and use of female mice). Three different age groups were given injections: PND 35 and PND 50 adolescents, and adult mice (PND 113). At least eight mice in each age group received CP and at least eight received vehicle. Matching the THC study time course ([Leishman et al., 2018]), mice were sacrificed via rapid decapitation 2 h after injection. Brains were immediately removed and flash-frozen in liquid nitrogen, and then stored at -80°C until dissections were performed. Brains were dissected on an ice-cold dissection plate into the following regions: STR, HIPP, CER, THAL, CTX, HYP, MID, and STEM. These abbreviations for these brain areas will be used exclusively when discussing the results generated by these specific dissections. Each dissected area was immediately placed in liquid nitrogen and then stored at -80°C until used for lipid extraction.
Tissue extracts were performed as previously described ([Bradshaw et al., 2006]; [Stuart et al., 2013]; [Raboune et al., 2014]; [Leishman et al., 2016a],[b], [2017], [2018]). First, samples were shock frozen in liquid nitrogen, weighed, and transferred to a centrifuge tube. The mass of the largest sample was multiplied by 50 to determine how many milliliters of HPLC-grade methanol (Fisher, Fair Lawn, NJ, United States) to add. Then, samples were spiked with 500 pmol deuterium-labeled NAGly (d8NAGly; Cayman Chemical, Ann Arbor, MI, United States). Samples were placed on ice in darkness for 2 h then individually homogenized and centrifuged at 19,000 × g for 20 min at 20°C. Supernatants were diluted with HPLC water (purified in house) to make a solution of 75% water, 25% supernatant. Lipids were partially purified on C18 solid phase extraction columns (Agilent, Palo Alto, CA, United States). A series of four elutions with 1.5 mL of 60%, 75%, 85%, and 100% methanol were collected ([Stuart et al., 2013]; [Leishman et al., 2016a],[b], [2018]).
As previously described ([Bradshaw et al., 2006]; [Tan et al., 2006]; [Smoum et al., 2010]; [Stuart et al., 2013]; [Tortoriello et al., 2013]; [Raboune et al., 2014]; [Leishman et al., 2016a],[b], [2017], [2018]), samples were analyzed using an Applied Biosystems API 3000 triple quadrupole mass spectrometer with electrospray ionization (Foster City, CA, United States). Using an Agilent XDB-C18 reversed phase analytical column and optimized mobile phase gradients, 20 μL from each elution were chromatographed. Two Shimadzu 10ADvp pumps (Columbia, MD, United States) provided the pressure for gradient elution. Mobile phase A: 20% methanol, 80% water (v/v) and 1 mM ammonium acetate (Sigma, St. Louis, MO, United States). Mobile phase B: 100% methanol, 1 mM ammonium acetate. Every method run began with 0% mobile phase B, reached 100% mobile phase B flowing at 0.2 mL/min, and gradually returned to 0% mobile phase B.
This screening library will be referred to as the lipidome when discussing data from this study. HPLC/MS/MS data were analyzed using Analyst software (Applied Biosystems) ([Bradshaw et al., 2006]; [Tan et al., 2006]; [Stuart et al., 2013]; [Tortoriello et al., 2013]; [Raboune et al., 2014]; [Leishman et al., 2016a],[b], [2017], [2018]). Chromatograms (Supplementary Figure 3) were generated by determining the retention time of analytes from the analytical column with a [M-1] or [M+1] parent peak and a fragmentation peak corresponding to the programmed values. […]

[1] = brainstem, PND 50, 3 mg/kg CP 55,940, one-way ANOVA p .000
[2] = cerebellum, PND 50, 3 mg/kg CP 55,940
[3] = cerebellum, adult, 3 mg/kg CP 55,940
[4] = cerebellum, PND 35, 3 mg/kg CP 55,940
[5] = cortex, PND 35, 3 mg/kg CP 55,940
[6] = hippocampus, PND 50, 3 mg/kg CP 55,940 vs Veh
[7] = hippocampus, adult, 3 mg/kg CP 55,940
[8] = hippocampus, PND 35, 3 mg/kg CP 55,940 vs vehicle
[9] = striatum, PND 50, 3mg/kg CP 55,940 vs Veh
[10] = striatum, adult, 3 mg/kg CP 55,940, one-way ANOVA p .000
[11] = striatum, PND 35, 3mg/kg CP 55,940
[12] = thalamus, PND 50, 3 mg/kg CP 55,940
[13] = thalamus, adult, 3 mg/kg CP 55,940
[14] = thalamus, PND 35, 3 mg/kg CP 55,940

## CCCCCCC(C)(C)c1ccc([C@@H]2C[C@H](O)CC[C@H]2CCCO)c(O)c1 [CP 55,940]
brainstem, PND 50, 3 mg/kg CP 55,940
  CP 55,940 level, Mean: 8.2E-11
[1]
  CP 55,940 level, Direction (relative to Veh): ↑
  CP 55,940 level, Magnitude (x Veh level): infinite
[2]
  CP 55,940 level: Direction (relative to Veh): ↑
  CP 55,940 level: Magnitude (x Veh level): infinite
cerebellum, PND 50 female mice, 3 mg/kg CP 55,940
  CP 55,940 level, Mean: 7.57E-11
cerebellum, WT adult female mice, 3mg/kg CP 55,940
  CP 55,940 level, Mean: 2.8E-10
[3]
  CP 55,940 level: Direction (relative to Veh): ↑
  CP 55,940 level: Magnitude (x Veh level): infinite
[4]
  CP 55,940 level: Direction (relative to Veh): ↑
  CP 55,940 level: Magnitude (x Veh level): infinite
cerebellum, PND35 WT female mice, 3mg/kg CP 55,940
  CP 55,940 level, Mean: 7.22E-11
cortex, PND 50, 3 mg/kg CP 55,940
  CP 55,940 level, Direction (relative to Veh): ↑
cortex, PND 50, 3 mg/kg CP 55,940, ANOVA p .000
  CP 55,940 level, Magnitude (x Veh level): infinite
cortex, PND 50 female mice, 3mg/kg CP 55,940
  CP 55,940 level, Mean: 8.61E-11
[5]
  CP 55,940 level Direction (rel to Veh): ↑
  CP 55,940 level, Magnitude (x Veh level): infinite
cortex, PND 35 adolescent female mice, 3 mg/kg CP 55,940
  CP 55,940 level, Mean: 1.11E-10
[6]
  CP 55,940 level, Direction (relative to Veh): ↑
  CP 55,940 level, Magnitude (x Veh level): infinite
hippocampus, PND 50 female mice
  CP 55,940 level: 1.23E-10
[7]
  CP 55,940 level, Mean: 2.68E-10
  CP 55,940 level: Direction (relative to Veh): ↑
  CP 55,940 level: Magnitude (x Veh level): infinite
[8]
  CP 55,940 level: Direction: ↑
  CP 55,940 level: Magnitude: infinite
hippocampus, PND 35 WT female mice, 3mg/kg CP 55,940
  CP 55,940 level, Mean: 9.63E-11
hypothalamus, PND 50, 3mg/kg CP 55,940
  CP 55,940 level, Direction (relative to Veh): ↑
hypothalamus, PND 50, 3mg/kg CP 55,940, ANOVA p .000
  CP 55,940 level, Magnitude (x Veh level): infinite
hypothalamus, PND 50 female mice, 3mg/kg CP 55,940
  CP 55,940 level, Mean: 4.38E-11
hypothalamus, PND 35 adolescent female mice, 3 mg/kg
  CP 55,940 level, Mean: 5.31E-11
midbrain, PND 50, 3mg/kg CP 55,940
  CP 55,940 level, Direction (relative to Veh): ↑
midbrain, PND 50, 3mg/kg CP 55,940, ANOVA p .000
  CP 55,940 level, Magnitude (x Veh level): infinite
midbrain, PND 50 female mice, 3mg/kg CP 55,940
  CP 55,940 level, Mean: 1.21E-10
midbrain, PND 35 WT adolescent female mice, 3 mg/kg
  CP 55,940 level, Mean: 7.91E-11
[9]
  CP 55,940 level, Direction (relative to Veh): ↑
  CP 55,940 level, Magnitude (x Veh level): infinite
striatum, PND 50 female mice
  CP 55,940 level: 5.87E-11
striatum, adult, 3 mg/kg CP 55,940
  CP 55,940 level, Mean: 2.08E-10
[10]
  CP 55,940 level, Direction (relative to Veh): ↑
  CP 55,940 level, Magnitude (x Veh level): infinite
[11]
  CP 55,940 level: Direction (relative to Veh): ↑
  CP 55,940 level: Magnitude (x Veh level): infinite
[12]
  CP 55,940 level: Direction (relative to Veh): ↑
  CP 55,940 level: Magnitude (x Veh level): infinite
thalamus, PND 50 female mice, 3 mg/kg CP 55,940
  CP 55,940 level, Mean: 9.93E-11
thalamus, WT adult female mice, 3mg/kg CP 55,940
  CP 55,940 level, Mean: 2E-10
[13]
  CP 55,940 level: Direction (relative to Veh): ↑
  CP 55,940 level: Magnitude (x Veh level): infinite
[14]
  CP 55,940 level, Direction (relative to Veh): ↑
  CP 55,940 level, Magnitude (x Veh level): infinite
thalamus, PND 35 adolescent female mice, 3 mg/kg CP 55,940
  CP 55,940 level, Mean: 8.87E-11
